# Measured values published in patent US10322097B2, “Treatment of subjects with multidrug-resistant cancer” (priority 2015, dated 2019).
# Read-outs that look alike come from different tables or passages of the source.
# How the values were obtained:
# [1] = tested on: DLD-1 Bax-Bak+/+ colon cancer cells; assay: MTT cytotoxicity assay, DLD-1 Bax-Bak+/+; format: cell-based; conditions: MTT, 3 days; for IC50: Homo sapiens, DLD-1, 72 h, read-out: IC50 DLD-1 Bax-Bak+/+ colon cancer cells
# Protocol: (§1) Cell cultures and cytotoxicity assays have been used. Celastrol was dissolved in DMSO at a final concentration of 100 mmol/L and stored at −20° C. Cytotoxicity was assessed using the 3-(4,5-dimethylthiazol-2-yl)-2,5-diphenyltetrazolium bromide assay. 4000 cells from HCT116 p53^+/+ or p53^−/− colon cancer cells and DLD-1 Bax-Bak^+/+ or Bax-Bak^−/− colon cancer cells were seeded on 96-well plates per well. […] Subsequently, 10 μL of MTT reagents were added to each well and incubated at 37° C. for 4 hours followed by the addition of 100 μL solubilization buffer (10% SDS in 0.01 mol/L HCl) and overnight incubation. […] The percentage of cell viability was calculated using the following formula: Cell viability (%)=Cells number treated/Cells number DMSO control×100. Data were obtained from three independent experiments.
# [2] = tested on: SGC-7901 (Gastric) cisplatin sensitive cancer cells; assay: MTT cytotoxicity assay, SGC-7901 cisplatin sensitive; format: cell-based, human; conditions: MTT, 3 days; read-out: IC50 SGC-7901 (Gastric) (Cisplatin sensitive)
# Protocol: (§2) Cell cultures and cytotoxicity assays have been used. Celastrol was dissolved in DMSO at a final concentration of 100 mmol/L and stored at −20° C. Cytotoxicity was assessed using the 3-(4,5-dimethylthiazol-2-yl)-2,5-diphenyltetrazolium bromide assay. 4000 cells from A2780 cisplatin sensitive/resistant ovarian cancer cells or SGC-7901 cisplatin sensitive/resistant gastric cancer cells were seeded on 96-well plates per well. After overnight pre-incubation, the cells were exposed to different concentrations of celastrol (0.039-100 μmol/L) or cisplatin for 3 days. Subsequently, 10 μL of MTT reagents were added to each well and incubated at 37° C. for 4 hours followed by the addition of 100 μL solubilization buffer (10% SDS in 0.01 mol/L HCl) and overnight incubation. Absorbance at 585 nm was determined from each well the next day. The percentage of cell viability was calculated using the following formula: Cell viability (%)=Cells number treated/Cells number DMSO control×100. Data were obtained from three independent experiments.
# [3] = tested on: A2780 (Ovary) cisplatin resistant cancer cells; assay: MTT cytotoxicity assay, A2780 cisplatin resistant; format: cell-based, human
# Protocol: as §2
# [4] = tested on: HCT116 p53+/+ colon cancer cells; assay: MTT cytotoxicity assay, HCT116 p53+/+; format: cell-based; conditions: read-out: IC50 HCT116 p53+/+ colon cancer cells
# Protocol: as §1
# [5] = tested on: DLD-1 Bax-Bak-/- colon cancer cells; assay: MTT cytotoxicity assay, DLD-1 Bax-Bak-/-; format: cell-based; conditions: for Resistant Factor: IC50 DLD-1 Bax-Bak-/- divided by IC50 DLD-1 Bax-Bak+/+; for IC50: Homo sapiens, DLD-1, 72 h, read-out: IC50 DLD-1 Bax-Bak-/- colon cancer cells
# Protocol: as §1
# [6] = tested on: SGC-7901 (Gastric) cisplatin resistant cancer cells; assay: MTT cytotoxicity assay, SGC-7901 cisplatin resistant; format: cell-based, human
# Protocol: as §2
# [7] = tested on: HCT116 p53-/- colon cancer cells; assay: MTT cytotoxicity assay, HCT116 p53-/-; format: cell-based; conditions: for Resistant Factor: IC50 HCT116 p53-/- divided by IC50 HCT116 p53+/+; for IC50: read-out: IC50 HCT116 p53-/- colon cancer cells
# Protocol: as §1
# [8] = tested on: A2780 (Ovary) cisplatin sensitive cancer cells; assay: MTT cytotoxicity assay, A2780 cisplatin sensitive; format: cell-based, human; conditions: MTT, 3 days; read-out: IC50 A2780 (Ovary) (Cisplatin sensitive)
# Protocol: as §2
# [9] = tested on: MCF-7 (Breast) doxorubicin resistant cancer cells; assay: MTT cytotoxicity assay, MCF-7 doxorubicin resistant; format: cell-based, human
# Protocol: as §2, with “MCF-7 doxorubicin” for “A2780 cisplatin”, “breast” for “ovarian”, “CEM doxorubicin” for “SGC-7901 cisplatin”, “leukemia” for “gastric cancer”, “doxorubicin” for “cisplatin”
# [10] = tested on: A549 (Lung) taxol resistant cancer cells; assay: MTT cytotoxicity assay, A549 taxol resistant; format: cell-based, human; conditions: for Resistant Factor: A549 taxol resistant versus taxol sensitive
# Protocol: (§3) Cell cultures and cytotoxicity assays have been used. Celastrol was dissolved in DMSO at a final concentration of 100 mmol/L and stored at −20° C. Cytotoxicity was assessed using the 3-(4,5-dimethylthiazol-2-yl)-2,5-diphenyltetrazolium bromide assay. 4000 cells from A549 (lung), A2780 (ovary), HCT-8 (colon) and MCF-7 (breast) cancer cells were seeded on 96-well plates per well. After overnight pre-incubation, the cells were exposed to different concentrations of celastrol (0.039-100 μmol/L) or taxol for 3 days. Subsequently, 10 μL of MTT reagents was added to each well and incubated at 37° C. for 4 hours followed by the addition of 100 μL solubilization buffer (10% SDS in 0.01 mol/L HCl) and overnight incubation. Absorbance at 585 nm was determined from each well the next day. The percentage of cell viability was calculated using the following formula: Cell viability (%)=Cells number treated/Cells number DMSO control×100. Data were obtained from three independent experiments.
# [11] = tested on: A549 (Lung) taxol sensitive cancer cells; assay: MTT cytotoxicity assay, A549 taxol sensitive; format: cell-based; conditions: Homo sapiens, A549, 72 h; MTT, 3 days; read-out: IC50 A549 (Lung) (Taxol sensitive)
# Protocol: as §3
# [12] = tested on: MCF-7 (Breast) taxol resistant cancer cells; assay: MTT cytotoxicity assay, MCF-7 taxol resistant; format: cell-based, human
# Protocol: as §3
# [13] = tested on: HCT-8 (Colon) taxol resistant cancer cells; assay: MTT cytotoxicity assay, HCT-8 taxol resistant; format: cell-based, human; conditions: for Resistant Factor: HCT-8 taxol resistant versus taxol sensitive
# Protocol: as §3
# [14] = tested on: A549 taxol-resistant lung cancer cells; assay: MTT cytotoxicity of taxol in presence or absence of celastrol; format: cell-based; conditions: Homo sapiens, A549, 72 h, 3 days
# Protocol: Cell cultures and cytotoxicity assays have been carried out. Celastrol was dissolved in DMSO at a final concentration of 100 mmol/L and stored at −20° C. Cytotoxicity was assessed using the 3-(4,5-dimethylthiazol-2-yl)-2,5-diphenyltetrazolium bromide assay. 4000 cells from A549 taxol-resistant lung cancer cells were seeded on 96-well plates per well. After overnight pre-incubation, the cells were exposed to different concentrations of taxol (0.019-100 μmol/L) in the presence or absence of celastrol (0.5 μM) for 3 days. Subsequently, 10 μL of MTT reagents was added to each well and incubated at 37° C. for 4 hours followed by the addition of 100 μL solubilization buffer (10% SDS in 0.01 mol/L HCl) and overnight incubation. […] The percentage of cell viability was calculated using the following formula: Cell viability (%)=Cells number treated/Cells number DMSO control×100. Data were obtained from three independent experiments.
# [15] = tested on: MCF-7 (Breast) taxol sensitive cancer cells; assay: MTT cytotoxicity assay, MCF-7 taxol sensitive; format: cell-based; conditions: Homo sapiens, MCF7, 72 h; MTT, 3 days; read-out: IC50 MCF-7 (Breast) (Taxol sensitive)
# Protocol: as §3
# [16] = tested on: HCT-8 (Colon) taxol sensitive cancer cells; assay: MTT cytotoxicity assay, HCT-8 taxol sensitive; format: cell-based; conditions: Homo sapiens, HCT-8, 72 h; MTT, 3 days; read-out: IC50 HCT-8 (Colon) (Taxol sensitive)
# Protocol: as §3
# [17] = tested on: A2780 (Ovary) taxol resistant cancer cells; assay: MTT cytotoxicity assay, A2780 taxol resistant; format: cell-based, human; conditions: for Resistant Factor: A2780 taxol resistant versus taxol sensitive
# Protocol: as §3
# [18] = tested on: A2780 (Ovary) taxol sensitive cancer cells; assay: MTT cytotoxicity assay, A2780 taxol sensitive; format: cell-based; conditions: Homo sapiens, A2780, 72 h; MTT, 3 days; read-out: IC50 A2780 (Ovary) (Taxol sensitive)
# Protocol: as §3
# [19] = biological target: P-gp (Homo sapiens, UniProt P08183); assay: Rho123 efflux assay in A549 taxol-resistant lung cancer cells (flow cytometry); conditions: 0.5 μM celastrol, pristimerin or dihydrocelastrol, or 10 μM verapamil, 24 h, then Rho123 1 h
# Protocol: A549 taxol-resistant lung cancer cells were seeded in 6 well-plates at a final concentration of 2×10^5 cells per well and cultured for 24 h at 37° C. in an atmosphere containing 5% CO2. […] Subsequently, 5 mg/mL Rho123 was added to each well and the wells were incubated for another 1 h at 37° C. At the end of the incubation, the accumulation of Rho123 was stopped by washing the cells five times with ice-cold PBS. After cell centrifugation, cell pellets were resuspended in 400 μL PBS. […] All data acquisition and analyses were performed with CellQuest (BD Biosciences, San Jose, Calif., USA) in triplicate in three independent experiments, and the results were shown as the mean of fluorescence intensity.
# A549 taxol-resistant lung cancer cells were seeded in 6 well-plates at a final concentration of 2×10^5 cells per well and cultured for 24 h at 37° C. in an atmosphere containing 5% CO2. […] All data acquisition and analyses were performed with CellQuest (BD Biosciences, San Jose, Calif., USA) in triplicate in three independent experiments, and the results were shown as the mean of fluorescence intensity.
# [20] = Homo sapiens, HCT-116, 72 h, MTT, 3 days
# P-gp, sequence (P08183 whole entry): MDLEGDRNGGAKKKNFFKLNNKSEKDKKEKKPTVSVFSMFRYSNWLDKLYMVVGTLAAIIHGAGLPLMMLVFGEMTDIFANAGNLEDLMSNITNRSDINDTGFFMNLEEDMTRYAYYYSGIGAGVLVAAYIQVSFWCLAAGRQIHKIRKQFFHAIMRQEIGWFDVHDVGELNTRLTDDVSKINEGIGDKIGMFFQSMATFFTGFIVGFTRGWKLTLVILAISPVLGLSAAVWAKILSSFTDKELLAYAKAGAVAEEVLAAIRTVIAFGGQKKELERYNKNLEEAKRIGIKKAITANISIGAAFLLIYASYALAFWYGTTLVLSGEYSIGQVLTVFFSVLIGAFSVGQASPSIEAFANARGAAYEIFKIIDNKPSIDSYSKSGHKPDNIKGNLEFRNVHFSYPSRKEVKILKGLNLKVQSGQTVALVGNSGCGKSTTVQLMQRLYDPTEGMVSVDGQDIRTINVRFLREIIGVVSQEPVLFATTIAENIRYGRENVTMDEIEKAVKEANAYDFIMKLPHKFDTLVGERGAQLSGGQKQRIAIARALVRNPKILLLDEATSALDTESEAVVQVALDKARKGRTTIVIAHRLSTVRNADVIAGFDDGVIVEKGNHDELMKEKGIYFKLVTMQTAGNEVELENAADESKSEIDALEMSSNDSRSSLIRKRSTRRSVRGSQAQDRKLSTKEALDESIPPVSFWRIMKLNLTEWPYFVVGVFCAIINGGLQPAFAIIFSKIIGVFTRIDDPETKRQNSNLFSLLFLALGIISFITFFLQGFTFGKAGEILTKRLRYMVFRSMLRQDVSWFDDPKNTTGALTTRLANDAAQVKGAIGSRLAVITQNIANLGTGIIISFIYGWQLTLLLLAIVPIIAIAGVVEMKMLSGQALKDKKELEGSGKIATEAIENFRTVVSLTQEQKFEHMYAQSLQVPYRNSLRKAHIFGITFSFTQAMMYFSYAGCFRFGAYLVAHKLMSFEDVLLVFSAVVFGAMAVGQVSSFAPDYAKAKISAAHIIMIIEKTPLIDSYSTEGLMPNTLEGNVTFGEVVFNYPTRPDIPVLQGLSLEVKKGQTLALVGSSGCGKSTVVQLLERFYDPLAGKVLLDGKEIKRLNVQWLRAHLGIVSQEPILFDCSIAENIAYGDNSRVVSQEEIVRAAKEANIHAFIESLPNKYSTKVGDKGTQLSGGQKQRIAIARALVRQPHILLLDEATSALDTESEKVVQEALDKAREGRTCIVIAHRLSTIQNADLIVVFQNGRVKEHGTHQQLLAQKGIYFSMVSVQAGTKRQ
compound,measurement,setting,value
"N.N.[Cl][Pt][Cl] [Cisplatin, cisplatin]",IC50 DLD-1 Bax-Bak+/+ colon cancer cells,[1],1.994 µg/mL
same,IC50,[2],1260 nM
same,Resistant Factor,[3]; A2780 cisplatin resistant versus cisplatin sensitive,14.92
same,IC50,"[3]; MTT, 3 days, read-out: IC50 A2780 (Ovary) (Cisplatin resistant)",18500 nM
same,IC50,"[4]; MTT, 3 days",190 nM
same,Resistant Factor,[5],1.84
same,IC50 DLD-1 Bax-Bak-/- colon cancer cells,"[5]; MTT, 3 days",3.678 µg/mL
same,IC50,"[6]; MTT, 3 days, read-out: IC50 SGC-7901 (Gastric) (Cisplatin resistant)",6190 nM
same,Resistant Factor,[6]; SGC-7901 cisplatin resistant versus cisplatin sensitive,4.9
same,Resistant Factor,[7],92.37
same,IC50,"[7]; MTT, 3 days",17600 nM
same,IC50,[8],1240 nM
"COc1cccc2c1C(=O)c1c(O)c3c(c(O)c1C2=O)C[C@@](O)(C(=O)CO)C[C@@H]3O[C@H]1C[C@H](N)[C@H](O)[C@H](C)O1 [Doxorubicin, doxorubicin]",IC50,[1],0.0523 µg/mL
same,IC50,"[4]; Homo sapiens, HCT-116, 72 h",520 nM
same,IC50,"[5]; MTT, 3 days",0.539 µg/mL
same,Resistant Factor,[5],10.31
same,IC50,"[9]; Homo sapiens, MCF7, 72 h, MTT, 3 days, read-out: IC50 MCF-7 (Breast) (Doxorubicin resistant)",10 µg/mL
same,Resistant Factor,[9]; MCF-7 doxorubicin resistant versus doxorubicin sensitive,21.6
same,IC50,"[7]; Homo sapiens, HCT-116, 72 h",10200 nM
same,Resistant Factor,[7],19.52
"COc1cc([C@@H]2c3cc4c(cc3[C@@H](O[C@@H]3O[C@@H]5CO[C@@H](C)O[C@H]5[C@H](O)[C@H]3O)[C@H]3COC(=O)[C@H]23)OCO4)cc(OC)c1O [Etoposide, etoposide]",IC50,[1],2360 nM
same,IC50,[4]; [20],940 nM
same,IC50,"[5]; MTT, 3 days",40400 nM
same,Resistant Factor,[5],17.12
same,IC50,[7]; [20],10600 nM
same,Resistant Factor,[7],11.28
"CN[C@@H]1C[C@H]2O[C@@](C)([C@@H]1OC)n1c3ccccc3c3c4c(c5c6ccccc6n2c5c31)C(=O)NC4 [Staurosporine, staurosporine]",Resistant Factor,[5],3.34
same,IC50,[7]; [20],48 nM
same,Resistant Factor,[7],13.01
"CC(=O)O[C@H]1C(=O)[C@@]2(C)[C@H]([C@H](OC(=O)c3ccccc3)[C@]3(O)C[C@H](OC(=O)[C@H](O)[C@@H](NC(=O)c4ccccc4)c4ccccc4)C(C)=C1C3(C)C)[C@]1(OC(C)=O)CO[C@@H]1C[C@@H]2O [Taxol, paclitaxel (taxol)]",Resistant Factor,[10],894.12
same,Resistant Factor,[10]; listed as taxol,over 894
same,IC50,"[10]; Homo sapiens, A549, 72 h, MTT, 3 days, read-out: IC50 A549 (Lung) (Taxol resistant)",30400 nM
same,IC50,[1],4.31 nM
same,IC50,[11],34 nM
same,IC50,"[12]; Homo sapiens, MCF7, 72 h, MTT, 3 days, read-out: IC50 MCF-7 (Breast) (Taxol resistant)",5000 nM
same,Resistant Factor,[12]; MCF-7 taxol resistant versus taxol sensitive,5000
same,Resistant Factor,[13],>31000
same,Resistant Factor,[13]; listed as taxol,31000
same,IC50,"[13]; Homo sapiens, HCT-8, 72 h, MTT, 3 days, read-out: IC50 HCT-8 (Colon) (Taxol resistant)",32000 nM
same,IC50,[4]; [20],19.5 nM
same,IC50,"[14]; co-treated with 0.5 μM celastrol, read-out: mean IC50 of taxol in the presence of celastrol",2170 nM
same,IC50,"[14]; taxol alone, read-out: mean IC50 of taxol",36000 nM
same,IC50,[15],< 1 nM
same,IC50,[16],< 1 nM
same,Resistant Factor,[17],>62000
same,Resistant Factor,[17]; listed as taxol,over 62000
same,IC50,"[17]; Homo sapiens, A2780, 72 h, MTT, 3 days, read-out: IC50 A2780 (Ovary) (Taxol resistant)",62000 nM
same,IC50,"[5]; MTT, 3 days",> 100 nM
same,Resistant Factor,[5],>23.2
same,IC50,[7]; [20],251 nM
same,Resistant Factor,[7],12.87
same,IC50,[18],< 1 nM
COC(=O)[C@]1(C)CC[C@]2(C)CC[C@]3(C)C4=CC=C5C(=CC(=O)C(O)=C5C)[C@]4(C)CC[C@@]3(C)[C@@H]2C1 [pristimerin],P-gp activity / Rho123 accumulation (Example 9),[19],showed P-pg inhibition
